# According to patent publication US7560473B2 (Institute of Pharmacology and Toxicology Academy of …, priority 2001, dated 2009):
# Experiments:
# [1] = target: T1, ATP-sensitive potassium channels in vascular smooth muscles (Rattus norvegicus, UniProt Q63563); experiment: Association kinetics of [^3H]P1075 binding in aortic rings; set-up: species or system Wistar rat; settings: 37° C.; drug M: Compound 1 10^−4, Glibencamide 10^−5, ATP 10^−2, ADP 10^−3, UDP 5 × 10^−5, GTP 10^−3, Ade 10^−3; control 4.36 ± 0.45; means ± SD, n = 4~10
# T1 construct: The aorta was cut into about 3-5 mm arterial rings and the vascular endothelium was scraped off; from tissue; host or cells: endothelium-removed aortic rings of male Wistar rats
# Excerpt: (§1) Biological activity experiment 4. Allosteric regulation of novel compounds on ATP-sensitive potassium channels in vascular smooth muscles.
# (§2) To study the allosteric regulation of compound 1 on ATP-sensitive potassium channels in vascular smooth muscles, the radio-labled-ligand was used in the biological activity experiment 4.
# (§3) 1. The allosteric regulation of compound 1 on the binding sites for the selective KATP blocker glibenclamide in vascular smooth muscles was studied as follows: After decapitated, the male Wistar rat (340±20 g) was immediately incised open the thoracic cavity. The aorta was dissected and immersed in the 4° C. buffer containing 10 mM HEPES to wash off the blood, then carefully extirpated the fat, peripheral connective tissues and thrombus. The aorta was cut into about 3-5 mm arterial rings and the vascular endothelium was scraped off with wet tampon. The arterial rings were blotted, weighted and transferred into the tubes containing proper amount of ice colded physiological saline buffer. In the association kinetics experiment, the arterial circles in the tubes were incubated with, compound 1(10^−4M), pinacidil(10^−4M), ATP(10^−2M), ADP(10^−3M), Ade(10^−3M), ADP(5×10^−5M) and equal volume of buffer respectively for 10 min in 25° C. water bath, and then added [^3H]-glibenclamide(3 nM). At 5,10,15,20,30,60,90 and 120 min after incubation, 9 mL ice colded Tris buffer (50 mM) was added to terminate the reaction. After washing off the free and bound [^3H]-glibenclamide, the aorta was blotted, transferred to a scintillator, added 50 uL 30% H2O2 and reacted for 2 h at 80° C. After cooling, 2.5 mL ethyl glycol and 5 mL 1% B-BPD xylene were added in sequence, kept stationary for 8 h and measured under a scintillometer for cpm value. The resulting data were fit into a regression line with In[BEQ/(BEQ-Bt)]vs.t and the parameters for association kinetics were obtained. In the disassociation kinetics experiments, the aorta treated as described above and [^3H]-glibenclamide were incubated for 60 min at 25° C., and then 30 uM glibenclamide was added. 0,5,15,30,60,90 and 120 min later, the cpm values for the complex of [^3H]-glibenclamide and KATP were measured. The resulting data were fit into a regression line with In(B/BEQ)]vs.t and the parameters for disassociation kinetics were obtained. 2. The allosteric regulation of compound 1 on the binding sites for the selective KATP activator P1075 in vascular smooth muscles was studied with the method as described above, but some conditions should be changed as follows: the incubation temperature was 37° C. instead of 25° C.;P1075 was used instead of glibenclamide; In the association kinetics experiments, the time points for sampling were 5,10,15,20,30,45,60 and 90 min, while in the disassociation kinetics experiments, that were 1,3,5,10,20,30,45 and 60 min. Biological activity experiment 5. The effects of compound 1 on the specific binding of high selective activator [^3H]P1075 with ATP-sensitive potassium channels in vascular smooth muscles.
# [2] = target: T1, ATP-sensitive potassium channels in vascular smooth muscles; experiment: Association and dissociation kinetics of [^3H]glibenclamide binding in aortic rings; set-up: species or system Wistar rat; settings: drug M: compound 1 10^−4, pinacidil 10^−4, ATP 10^−2, ADP 10^−3, UDP 5 × 10^−3, Ade 10^−3; for Dissociation kinetics k2 of [^3H]glibenclamide binding / Association kinetics k1 of [^3H]glibenclamide binding / Association kinetics kobs of [^3H]glibenclamide binding / Association kinetics kA of [^3H]glibenclamide binding: 25° C.; for Dissociation kinetics k2 of [^3H]glibenclamide binding: control 0.72 ± 0.11; for Dissociation kinetics Kd of [^3H]glibenclamide binding in presence of the drug: Kd of the radioligand, not of the drug, control 0.55 ± 0.14; for Association kinetics k1 of [^3H]glibenclamide binding / Association kinetics kobs of [^3H]glibenclamide binding / Association kinetics kA of [^3H]glibenclamide binding: [^3H]-glibenclamide 3 nM; for Association kinetics k1 of [^3H]glibenclamide binding: control 1.31 ± 0.14; for Association kinetics kobs of [^3H]glibenclamide binding: control 4.65 ± 0.37, means ± SD, n = 4~10; for Association kinetics kA of [^3H]glibenclamide binding: control 181.90 ± 46.90
# Excerpt: as §1, §2
# as §3, with “In the association kinetics experiment, the arterial circles in the tubes were incubated with, compound 1(10^−4M), pinacidil(10^−4M), ATP(10^−2M), ADP(10^−3M), Ade(10^−3M), ADP(5×10^−5M) and equal volume of buffer respectively for 10 min in 25° C. water bath, and then added [^3H]-glibenclamide(3 nM).” left out
# [3] = test system: outward potassium currents of rat tail arterial SMCs; experiment: Whole cell recording of outward potassium currents in rat tail arterial SMCs; format: cell-based, Wistar rats; settings: X ± SD n = 5
# Excerpt: Biological activity experiments 6. The effects of novel compounds on potassium currents in isolated arterial vascular smooth muscle cells (SMCs).
# The outward currents were, elicited in rat tail arterial SMCs by superfusing extracellular solution under whole cell recording configuration that the depolarizing pulse were applied from −30 mV to +100 mV with the holding potential of −40 mV in 100 ms, 10 mV clamp steps, a frequency of 5 KHz. The compounds were applied in the bath at the concentrations of 100 μmol L^−1. The amplitude of the outward potassium currents was recorded before and after compound application Values were expressed as means±SD. Statistical significance between two groups was evaluated by student's t-test for paired data * P<0.05 **P<0.01 vs control.
# 1. Preparation of single smooth muscle cells from rat tail arteries: Male Wistar rats (200-250 g) were killed by exsanguination. The tail artery was dissected out and transferred into cold physiological salt solution (PSS) of the following composition (in mM): NaCl 118.3, KCl 4.7, KH2PO4 1.2, MgSO4 1.2, NaHCO3 25.0, CaCl2 2.5, EDTA 0.026 and Glucose 5.0 pH7.4. With the use of a dissecting microscope, the connective tissues were removed and the artery was cut open longitudinally. Endothelium was removed carefully with a cotton swab then the artery was cut into segments with 1 mm long and placed in 4° C. the extracellular solution containing (in mM) NaCl 130, KCl 5, MgCl2 1.2, HEPES 10, Glucose 10, pH7.2 for 20 min. After this incubation, the medium was changed to enzyme solution which was composed of collagenase I (1 mg ml^−1), papain (5 mg ml^−) and bovine serum albumin (2 mg ml^−1). The tissues, were incubated in this solution for 40 min, and then rinsed three times triturated using a fire-polished Pasteur pipette until the medium turned cloudily. The cell suspension was stored in the refrigerator at 4° C.
# 3. Whole cell recordings: A bath dish with the smooth muscle cells (SMCs) attached and superfused with the extracellular solution at a flow rate of 2 ml min^−1 was mounted onto the stage of an inverted-phase contrast microscope. The microelectrodes having a resistance of (5-8 MΩ) were made from boroscilicate thin-wall glass capillaries, using an automatic multiple-stage, electronic puller (PP830 Japan) and then heat-polished. After establishing a high resistance seal, the patch membrane was disrupted by negative pressure. A commercial patch clamp amplifier (Axon 200B) was used to generate and apply voltages and sample current signals from the cell.
# [4] = test system: rats anesthetized with pentobarbital sodium; experiment: Effects on blood pressure, heart rate, cardiac contraction and dilation in rats anesthetized with pentobarbital sodium; format: in vivo, Wistar rats; set-up: unit not given here; settings: change after injection through femoral vein, '+' = increase, all others = decrease
# Procedure: Biological activity experiment 1. The effects of 16 compounds represented by formula I on blood pressure, heart rate, cardiac contraction and dilation in rats anesthetized with pentobarbital sodium.
# The methods of biological activity experiment 1 were as follows: Male Wistar rats, weighing 280±30 g were purchased from the experimental animal center of Academy of Military Medical Sciences. Rats were anesthetized with pentobarbital sodium (45 mg/kg) by peritoneal injection. A PE50 polyethylene catheter was inserted into the left ventricle through right carotid artery for cardiac function measurement with a pressure energe exchanger, wherein the signal is put into a SMUP-PC biosignal processing system. Cardiac functional parameters such as HR, LVSP, +dp/dtmax, −dp/dtmax and Vpm were recorded. Another two PE50 polyethylene catheters were inserted into the right femoral artery and vein respectively for blood pressure measurement wherein the artery cathether was linked to a four-channel physiology recorder (RM-6000) through a MPU-0.5A Type pressure energe exchanger, which recorded SBP, DBP and MBP, while the vein catheter was used for compound administration. The methods were described by Liu Wei et al: Liu Wei, Wang Hai, Xiao Wen-Bin. […] Bull Acad Mil Med Sci 1996;20(4):245˜248.
# [5] = target: T1, ATP-sensitive potassium channels in vascular smooth muscles; experiment: Inhibition of specific binding of [^3H]P1075 in endothelium-removed rat aorta; set-up: species or system Wistar rat; settings: [^3H] P1075 5 nmol L^−1, 90 minutes at 37° C., endothelium-removed rat aorta
# [6] = mean, n = 3~5, doses mg/kg: 2, 8, 12: 10, 3-7, 9-11, 40-44: 5
# T1 sequence (Q63563 1-1545 isoform Q63563-2): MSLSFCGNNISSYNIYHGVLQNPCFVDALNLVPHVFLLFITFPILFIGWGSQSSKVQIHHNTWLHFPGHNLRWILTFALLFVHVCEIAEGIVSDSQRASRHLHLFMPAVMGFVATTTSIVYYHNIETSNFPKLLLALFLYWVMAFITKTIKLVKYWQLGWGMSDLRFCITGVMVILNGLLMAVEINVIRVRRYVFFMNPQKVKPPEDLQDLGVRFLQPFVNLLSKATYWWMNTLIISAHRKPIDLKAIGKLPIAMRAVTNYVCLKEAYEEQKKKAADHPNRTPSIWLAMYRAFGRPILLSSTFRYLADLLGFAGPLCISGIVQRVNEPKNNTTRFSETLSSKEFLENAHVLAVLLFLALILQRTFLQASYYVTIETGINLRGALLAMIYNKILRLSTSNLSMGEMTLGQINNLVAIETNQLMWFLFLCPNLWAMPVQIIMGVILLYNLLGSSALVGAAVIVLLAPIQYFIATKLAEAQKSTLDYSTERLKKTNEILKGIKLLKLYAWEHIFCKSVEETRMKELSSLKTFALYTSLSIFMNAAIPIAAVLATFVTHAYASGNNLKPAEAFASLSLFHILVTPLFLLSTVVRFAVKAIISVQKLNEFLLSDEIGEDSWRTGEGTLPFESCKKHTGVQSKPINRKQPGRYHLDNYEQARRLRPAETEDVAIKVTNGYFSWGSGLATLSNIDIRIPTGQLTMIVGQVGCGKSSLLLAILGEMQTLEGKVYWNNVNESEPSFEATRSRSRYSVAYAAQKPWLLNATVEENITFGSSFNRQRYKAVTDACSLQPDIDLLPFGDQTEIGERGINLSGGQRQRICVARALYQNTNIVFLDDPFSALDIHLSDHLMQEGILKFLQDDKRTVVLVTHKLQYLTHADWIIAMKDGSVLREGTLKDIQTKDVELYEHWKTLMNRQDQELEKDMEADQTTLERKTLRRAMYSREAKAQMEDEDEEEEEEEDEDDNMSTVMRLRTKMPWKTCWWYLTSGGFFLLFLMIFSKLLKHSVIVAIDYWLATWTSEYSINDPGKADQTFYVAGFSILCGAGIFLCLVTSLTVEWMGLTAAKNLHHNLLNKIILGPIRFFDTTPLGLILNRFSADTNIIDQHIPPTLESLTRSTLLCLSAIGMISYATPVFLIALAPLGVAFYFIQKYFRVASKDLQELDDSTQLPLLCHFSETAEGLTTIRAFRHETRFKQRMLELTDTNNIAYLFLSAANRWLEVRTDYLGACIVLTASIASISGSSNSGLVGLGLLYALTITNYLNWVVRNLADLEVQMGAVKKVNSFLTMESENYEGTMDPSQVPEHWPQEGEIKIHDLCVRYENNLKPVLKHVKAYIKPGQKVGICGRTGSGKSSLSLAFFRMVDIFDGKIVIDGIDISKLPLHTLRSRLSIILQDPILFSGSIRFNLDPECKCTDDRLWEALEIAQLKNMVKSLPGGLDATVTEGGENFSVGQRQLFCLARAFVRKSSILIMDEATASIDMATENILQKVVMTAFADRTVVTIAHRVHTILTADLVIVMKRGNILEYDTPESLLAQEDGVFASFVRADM
# T1 sequence (Q63664 whole entry partner): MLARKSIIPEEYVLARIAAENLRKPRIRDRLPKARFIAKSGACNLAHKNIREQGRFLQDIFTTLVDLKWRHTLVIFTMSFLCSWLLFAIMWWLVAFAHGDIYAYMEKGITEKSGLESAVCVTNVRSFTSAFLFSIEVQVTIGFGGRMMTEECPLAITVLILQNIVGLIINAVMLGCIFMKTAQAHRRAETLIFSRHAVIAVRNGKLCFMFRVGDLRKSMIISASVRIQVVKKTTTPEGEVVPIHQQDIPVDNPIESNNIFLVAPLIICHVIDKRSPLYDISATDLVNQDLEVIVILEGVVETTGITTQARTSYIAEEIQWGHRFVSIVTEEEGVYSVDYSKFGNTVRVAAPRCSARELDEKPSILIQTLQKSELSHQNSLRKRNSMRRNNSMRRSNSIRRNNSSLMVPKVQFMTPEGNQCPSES
Structure (SMILES),Association kinetics kobs of [^3H]P1075 binding [1],Dissociation kinetics k2 of [^3H]glibenclamide binding [2],Dissociation kinetics Kd of [^3H]glibenclamide binding in presence of the drug [2] [µM],Association kinetics k1 of [^3H]glibenclamide binding [2],Association kinetics kobs of [^3H]glibenclamide binding [2],Association kinetics kA of [^3H]glibenclamide binding [2],further results
Nc1ncnc2c1ncn2[C@@H]1O[C@H](COP(=O)(O)OP(=O)(O)O)[C@@H](O)[C@H]1O [ADP],2.63 ± 0.48 ×10^−2 nM^−1 · min^−1,0.94 ± 0.10 ×10^2 nM^−1 · min^−1,0.00209 ± 0.00112,0.45 ± 0.24 ×10^−2nM^−1 · min^−1,2.28 ± 0.70 ×10^−2nM^−1 · min^−1,47.80 ± 25.70 ×10^−2nM^−1 · min^−1,
"Nc1ncnc2c1ncn2[C@@H]1O[C@H](COP(=O)(O)OP(=O)(O)OP(=O)(O)O)[C@@H](O)[C@H]1O [ATP, adenosine triphosphate]",2.85 ± 0.08 ×10^−2 nM^−1 · min^−1,0.42 ± 0.14 ×10^2 nM^−1 · min^−1,0.00017 ± 6e-05,2.42 ± 0.34 ×10^−2nM^−1 · min^−1,7.69 ± 1.01 ×10^−2nM^−1 · min^−1,590.2 ± 208.20 ×10^−2nM^−1 · min^−1,
O=c1ccn([C@@H]2O[C@H](COP(=O)(O)OP(=O)(O)O)[C@@H](O)[C@H]2O)c(=O)[nH]1 [UDP],5.53 ± 0.51 ×10^−2 nM^−1 · min^−1,0.80 ± 0.22 ×10^2 nM^−1 · min^−1,0.0007 ± 0.00024,1.15 ± 0.23 ×10^−2nM^−1 · min^−1,4.26 ± 0.65 ×10^−2nM^−1 · min^−1,143.50 ± 49.00 ×10^−2nM^−1 · min^−1,
"CCCNC(C)(C)C(C)C [compound 5, N-propyl-2,3-dimethyl-2-butylamine]",,,,,,,"melting point: 183 to 185 °C; Currents, + Compound ([3]; outward potassium current amplitude after compound 100 μmol L^−1 in the bath): 0.67 ± 0.30 nA; Currents, Control (before compound application) ([3]; outward potassium current amplitude before compound application, same cells): 0.65 ± 0.30 nA; MBP: mean blood pressure ([4]; n = 3~5, doses mg/kg: 2, 8, 12: 10, 3-7, 9-11, 40-44: 5): 28; DBP: diastolic blood pressure [4, 6]: 25; HR: heart rate [4, 6]: 78; LVSP: left ventricular systolic pressure [4, 6]: 162; SBP: systolic blood pressure [4, 6]: 34; Vpm: the physiological velocity of contractile element shorting [4, 6]: 0.58; −dp/dtmax: the maximal rate of the decrease of left ventricular pressure [4, 6]: 187"
"COc1ccc(Cl)cc1C(=O)NCCc1ccc(S(=O)(=O)NC(=O)NC2CCCCC2)cc1 [glibenclamide, reference compound]",3.12 ± 0.17 ×10^−2 nM^−1 · min^−1,,,,,,IC50 [5]: 58.9 ± 4.6 µM; Ki ([5]; read-out: pKi for inhibition of specific binding of [^3H]P1075 (converted)): 58.9 µM
